Columns and labels:
[1] = test system: EMT6 triple-negative breast cancer cells; assay: In vivo anti-tumour activity in mice with a breast cancer cell syngeneic allograft; details: 150 mg/kg QD PO
Method: (§1) Murine triple-negative breast cancer EMT6 tumour cells (ATCC® CRL-2755™) and colorectal cancer CT26.WT cells (ATCC® CRL-2638™) were cultured and expanded in RPMI-1640 medium (Roswell Park Memorial Institute Medium-1640) with L-glutamine and sodium bicarbonate (Sigma-Aldrich, Macquarie Park, NSW, Australia) supplemented with 10% heat-inactivated foetal bovine serum (FBS). Cells were cultured in an incubator at 5% CO2 37° C.
(§2) EMT6 cells were harvested and re-suspended in a 1:1 mixture of Matrigel™ (#354234; Corning Life Sciences, Corning, NY, United States of America) and serum-free RPMI-1640 medium, and thereafter injected sub-cutaneously (sc) (7×10^5 cells in a volume of […]) into the right flank of each female BALB/c mouse. After the tumour volume reached ˜100 mm^3, the mice were randomised into two groups (n=4/group) and given vehicle (1% CMC in water), or compound 1 (150 mg/kg) once daily by oral administration (QD PO). […] The level of phosphorylated RB (p-S807/11) was also found to be reduced in the EMT6 tumours collected two hours post-final dose, confirming CDK4/6 inhibition (FIG. 1B). A reduction in the […], PDL-1, in the spleen samples of the mice isolated two hours post-final dose was also observed, indicating the immunotherapeutic potential of compound 1 (FIG. 1C).

[2] = test system: CD3+, CD4+, CDK8+ and CD45+ T-cells; assay: Immune markers (T cell population in spleen) in CT26.WT-bearing treated mice; format: in vivo, mouse
Method: (§3) In another experiment, mice bearing CT26.WT colorectal cancer cells were treated with vehicle (distilled water QD PO), compound 1 (100 mg/kg QD PO), an anti-PD-1 antibody ([…] ip), or compound 1 plus the anti-PD-1 antibody.

[3] = test system: phosphorylated RB (p-S807/11); assay: Phosphorylated RB level in EMT6 tumours of treated mice; format: in vivo, mouse (female BALB/c); details: EMT6 tumours collected two hours post-final dose, 150 mg/kg QD PO
Method: as §2

[4] = test system: CT26.WT colorectal cancer cells; assay: In vivo anti-tumour activity in CT26.WT syngeneic mouse model (second experiment)
Method: as §1, §3

PDL-1 = assay: PD-L1 level in samples of EMT6-bearing treated mice; format: in vivo, mouse (female BALB/c); details: spleen samples isolated two hours post-final dose, 150 mg/kg QD PO
Method: as §2

[5] = test system: CT26.WT colorectal cancer cells; assay: In vivo anti-tumour activity in mice with a colorectal cancer cell syngeneic allograft (first experiment); parameters: species or system mouse (female BALB/c)
Method: as §1
Similarly, mice bearing CT26.WT colorectal cancer cells were matched and randomised to vehicle or treatment groups (n=8/group). Female BALB/c mice with mean tumour volume ˜100 mm^3 were given vehicle (distilled water QD PO), compound 1 (100 mg/kg QD PO), an anti-PD1 antibody (RMP1-14-derived mouse monoclonal antibody; Assay Matrix Pty Ltd, Ivanhoe North, VIC, Australia), 200 μg/mouse/week by intraperitoneal (ip) administration) or compound 1 plus anti-PD-1 antibody.

Row | SMILES | weight loss or overt toxicity ([1]; EMT6-bearing mice, throughout the study) | level of immune markers CD3+, CD4+, CDK8+ and CD45+ T-cells [2] | level of phosphorylated RB (p-S807/11) [3] | TGI, used alone ([4]; 100 mg/kg QD PO alone, day 15 of dosing) | TGI, combination with anti-PD-1 antibody ([4]; 100 mg/kg QD PO plus anti-PD-1 antibody (150 g/mouse/week ip), day 15 of dosing) | anti-tumour efficacy of combination compared with anti-PD-1 alone ([4]; compound 1 plus anti-PD-1 antibody, p=0.03) | level of immune checkpoint protein ligand PDL-1 (PDL-1) | tumour growth inhibition (% TGI), used alone ([5]; 100 mg/kg QD PO alone, day 21 of dosing) | tumour growth inhibition (% TGI), combination with anti-PD-1 antibody ([5]; 100 mg/kg QD PO plus anti-PD-1 antibody 200 μg/mouse/week ip, day 21 of dosing) | survival of the mice, combination with anti-PD-1 antibody ([5]; 100 mg/kg QD PO plus anti-PD-1 antibody, p<0.001) | survival of the mice, single agent ([5]; 100 mg/kg QD PO, p<0.001) | tumour growth inhibition (% TGI) ([1]; EMT6 allograft, final day of tumour measurement)
1 | CCN1CCN(Cc2ccc(Nc3ncc(F)c(-c4sc(NC5CCCC5)nc4C)n3)nc2)CC1 [Compound 1, N-cyclopentyl-5-(2-((5-((4-ethylpiperazin-1-yl)methyl)pyridin-2-yl)amino)-5-fluoropyrimidin-4-yl)-4-methylthiazol-2-amine] | No significant weight loss or any overt toxicity | increased level | reduced | 77% | 91% | more effective | reduction | 75% | 91% | significantly prolong | significantly prolong | –
2 | CNc1nc(C)c(-c2nc(Nc3ccc(CN4CCN(C(C)C)CC4)cn3)ncc2F)s1 [Compound 12, 5-(5-fluoro-2-((5-((4-isopropylpiperazin-1-yl)methyl)pyridin-2-yl)amino)pyrimidin-4-yl)-N,4-dimethylthiazol-2-amine] | – | – | – | – | – | – | – | – | – | – | – | 47%

Reference: patent US20250049796A1, “USE OF 4-THIAZOL-N-(PYRIDIN-2-YL)PYRIMIDIN-2-AMINE DERIVATIVES IN COMBINATION THERAPIES FOR CANCER” (Aucentra Therapeutics Pty Ltd, priority 2022, published 2025)
